Assay results taken from US20100041089A1, “IMPROVED METHOD FOR DETECTING CHEMICAL […]” (priority 2006, published 2010).

Test system: yeast genes (expressed mRNA)
Assay: DNA chip measurement of expressed mRNA of yeast genes after culture with a toxic chemical substance
Assay type: cell-based, Saccharomyces cerevisiae S288C
Conditions: for level of expressed mRNA in the presence of chemical substance / level in the absence of chemical substance: cultured two hours with the chemical substance; for The level of expressed mRNA in the presence of chemical substance/The level of expressed mRNA in the absence of chemical substance: cultured two hours with substance
Experimental: Yeast (Saccharomyces cerevisiae S288C (a SUC2mal mel gap2 CUP1)) were cultured at 25° C. on YPD medium (yeast extract 1%, polypeptone 2%, glucose 2%). One of toxic chemical substances was added to the cell at logarithmic growth phase, and the cell was further cultured for two hours. Cell was cultured without any chemical substance in the same condition, and was used as a control. Concentrations of the chemical substances were defined to inhibit the growth of the yeast but not lead to death.
After the completion of cultivation, the culture was centrifuged to collect the cells. To the cells, sodium acetate buffer (50 mM sodium acetate, 10 mM EDTA, 1% SDS) was added, and the mixture was shaken at 65° C. for five minutes, followed by returning to room temperature, and obtaining the supernatant, which procedure was repeated two times. To the supernatant, ½ amount of a solution of phenol/chloroform (1:1) was added, and the mixture was centrifuged to give a supernatant, an equal amount of chloroform was added, and the mixture was centrifuged to give a supernatant. To the supernatant, an equal amount of isopropanol containing 0.3 M sodium acetate was added, and the mixture was allowed to stand at room temperature for 30 minutes, after which the mixture was centrifuged to give sediment of the whole RNAs. Seventy % ethanol was added to the sediment, and the mixture was again centrifuged to give sediment, which was then dried and dissolved in water. mRNA was isolated from the whole RNAs as followings. In view of the fact that a poly A chain is attached to the 3′ terminus of mRNA, a polynucleotide having a poly T structure which was immobilized on the surface of latex beads was used to trap the mRNA, and then the mRNA was washed and eluted with spine column (Oligotex-dT30<Super>mRNA Purification Kit, Takara). Reverse transcription of the mRNA was conducted with a reverse transcriptase (Super Script II Reverse Transcriptase; catalogue No. 18064-014, GibcoBRL) using fluorescence-labeled nucleotides to give cDNAs that were introduced with Cy3-dUTP or Cy5-dUTP during the reverse transcription.
The labeled cDNAs were dissolved in TE buffer (10 mM Tris-HCl/1 mM EDTA, pH 8.0), and the solution was dropped on the DNA chip containing the whole genes of yeast (DNA Chip Research Inc. Japan) so that the cDNAs were hybridized on the DNA chip at 65° C. for over 12 hours. The fluoresces intensity of the DNA chip was read with a scanner, and the ratio relative to the fluorescence intensity resulting from the absence of chemical substance was estimated as the following, which is shown in Tables 1 to 9.
In the Tables, “Intensity” indicated in the rightmost column is a value of the level of expressed mRNA of each gene in control cells as divided by the average level of the expressions of the whole genes. A gene of which mRNA level is lower in control, and is higher in cases of addition of chemical substance, is especially useful in the detection of toxic substances.
Here, when a ratio of an amount of mRNA expressed in the presence of the chemical substance to an amount of mRNA expressed in the absence of the chemical substance is two or more, then it is considered significant.

`[Cl][Cd][Cl]` [(2), CdCl2] was tested. Which “level of expressed mRNA in the presence of chemical substance / level in the absence of chemical substance” value (yeast gene YNL058C) did it give?
Its value is 1.0.

What about the “level of expressed mRNA in the presence of chemical substance / level in the absence of chemical substance” value (yeast gene YNL063W) of the same compound?
Its value is 1.9.

What about the “The level of expressed mRNA in the presence of chemical substance/The level of expressed mRNA in the absence of chemical substance” value (yeast gene YNL074C) of the same compound?
The value was 1.3.

What about the “The level of expressed mRNA in the presence of chemical substance/The level of expressed mRNA in the absence of chemical substance” value (yeast gene YNL092W) of the same compound?
The value was 1.4.

And the “The level of expressed mRNA in the presence of chemical substance/The level of expressed mRNA in the absence of chemical substance” value (yeast gene YNL115C)?
Its value is 1.8.

And the “The level of expressed mRNA in the presence of chemical substance/The level of expressed mRNA in the absence of chemical substance” value (yeast gene YNL156C)?
The value was 1.2.

And the “level of expressed mRNA in the presence of chemical substance / level in the absence of chemical substance” value (yeast gene YNL176C)?
Its value is 1.3.

And the “level of expressed mRNA in the presence of chemical substance / level in the absence of chemical substance” value (yeast gene YNL194C)?
The value was 0.7.

And the “level of expressed mRNA in the presence of chemical substance / level in the absence of chemical substance” value (yeast gene YNL200C)?
Its value is 3.0.

And the “The level of expressed mRNA in the presence of chemical substance/The level of expressed mRNA in the absence of chemical substance” value (yeast gene YNL234W)?
Its value is 1.1.

What about the “level of expressed mRNA in the presence of chemical substance / level in the absence of chemical substance” value (yeast gene YNL253W) of the same compound?
Its value is 1.3.

What about the “level of expressed mRNA in the presence of chemical substance / level in the absence of chemical substance” value (yeast gene YNL276C) of the same compound?
Its value is 13.1.

What about the “The level of expressed mRNA in the presence of chemical substance/The level of expressed mRNA in the absence of chemical substance” value (yeast gene YNL281W) of the same compound?
Its value is 1.3.

And the “The level of expressed mRNA in the presence of chemical substance/The level of expressed mRNA in the absence of chemical substance” value (yeast gene YNL305C)?
Its value is 2.2.

What about the “level of expressed mRNA in the presence of chemical substance / level in the absence of chemical substance” value (yeast gene YNR051C) of the same compound?
The value was 0.5.

And the “The level of expressed mRNA in the presence of chemical substance/The level of expressed mRNA in the absence of chemical substance” value (yeast gene YNR068C)?
The value was 1.5.

And the “level of expressed mRNA in the presence of chemical substance / level in the absence of chemical substance” value (yeast gene YOL026C)?
Its value is 2.7.

And the “The level of expressed mRNA in the presence of chemical substance/The level of expressed mRNA in the absence of chemical substance” value (yeast gene YOL032W)?
Its value is 0.8.

What about the “The level of expressed mRNA in the presence of chemical substance/The level of expressed mRNA in the absence of chemical substance” value (yeast gene YOL036W) of the same compound?
The value was 0.9.

And the “The level of expressed mRNA in the presence of chemical substance/The level of expressed mRNA in the absence of chemical substance” value (yeast gene YOL047C)?
The value was 1.1.

What about the “The level of expressed mRNA in the presence of chemical substance/The level of expressed mRNA in the absence of chemical substance” value (yeast gene YOL071W) of the same compound?
Its value is 2.0.

What about the “The level of expressed mRNA in the presence of chemical substance/The level of expressed mRNA in the absence of chemical substance” value (yeast gene YOL082W) of the same compound?
Its value is 1.6.

What about the “The level of expressed mRNA in the presence of chemical substance/The level of expressed mRNA in the absence of chemical substance” value (yeast gene YOL083W) of the same compound?
The value was 2.3.

And the “The level of expressed mRNA in the presence of chemical substance/The level of expressed mRNA in the absence of chemical substance” value (yeast gene YOL117W)?
The value was 1.1.

And the “The level of expressed mRNA in the presence of chemical substance/The level of expressed mRNA in the absence of chemical substance” value (yeast gene YOL131W)?
The value was 1.5.

What about the “The level of expressed mRNA in the presence of chemical substance/The level of expressed mRNA in the absence of chemical substance” value (yeast gene YOL150C) of the same compound?
Its value is 3.7.

And the “The level of expressed mRNA in the presence of chemical substance/The level of expressed mRNA in the absence of chemical substance” value (yeast gene YOL162W)?
Its value is 6.9.

And the “The level of expressed mRNA in the presence of chemical substance/The level of expressed mRNA in the absence of chemical substance” value (yeast gene YOR019W)?
Its value is 1.2.

And the “level of expressed mRNA in the presence of chemical substance / level in the absence of chemical substance” value (yeast gene YOR022C)?
Its value is 1.1.

What about the “level of expressed mRNA in the presence of chemical substance / level in the absence of chemical substance” value (yeast gene YOR087W) of the same compound?
The value was 1.0.

What about the “level of expressed mRNA in the presence of chemical substance / level in the absence of chemical substance” value (yeast gene YOR138C) of the same compound?
The value was 1.5.

What about the “The level of expressed mRNA in the presence of chemical substance/The level of expressed mRNA in the absence of chemical substance” value (yeast gene YOR197W) of the same compound?
Its value is 1.0.

And the “level of expressed mRNA in the presence of chemical substance / level in the absence of chemical substance” value (yeast gene YOR253W)?
The value was 2.8.

What about the “level of expressed mRNA in the presence of chemical substance / level in the absence of chemical substance” value (yeast gene YOR267C) of the same compound?
Its value is 0.7.

What about the “level of expressed mRNA in the presence of chemical substance / level in the absence of chemical substance” value (yeast gene YOR325W) of the same compound?
Its value is 2.6.

And the “level of expressed mRNA in the presence of chemical substance / level in the absence of chemical substance” value (yeast gene YPL005W)?
Its value is 1.0.

What about the “The level of expressed mRNA in the presence of chemical substance/The level of expressed mRNA in the absence of chemical substance” value (yeast gene YPL087W) of the same compound?
The value was 5.1.

What about the “level of expressed mRNA in the presence of chemical substance / level in the absence of chemical substance” value (yeast gene YPL150W) of the same compound?
The value was 0.9.

What about the “level of expressed mRNA in the presence of chemical substance / level in the absence of chemical substance” value (yeast gene YPL152W) of the same compound?
The value was 1.1.

And the “level of expressed mRNA in the presence of chemical substance / level in the absence of chemical substance” value (yeast gene YPL168W)?
Its value is 1.5.

What about the “level of expressed mRNA in the presence of chemical substance / level in the absence of chemical substance” value (yeast gene YPL180W) of the same compound?
The value was 2.0.

And the “level of expressed mRNA in the presence of chemical substance / level in the absence of chemical substance” value (yeast gene YPL188W)?
Its value is 1.2.

And the “The level of expressed mRNA in the presence of chemical substance/The level of expressed mRNA in the absence of chemical substance” value (yeast gene YPL196W)?
Its value is 1.6.

What about the “The level of expressed mRNA in the presence of chemical substance/The level of expressed mRNA in the absence of chemical substance” value (yeast gene YPL206C) of the same compound?
The value was 2.9.

And the “level of expressed mRNA in the presence of chemical substance / level in the absence of chemical substance” value (yeast gene YPL221W)?
Its value is 3.0.

What about the “The level of expressed mRNA in the presence of chemical substance/The level of expressed mRNA in the absence of chemical substance” value (yeast gene YPL222W) of the same compound?
Its value is 3.5.

And the “level of expressed mRNA in the presence of chemical substance / level in the absence of chemical substance” value (yeast gene YPL225W)?
The value was 1.7.

And the “The level of expressed mRNA in the presence of chemical substance/The level of expressed mRNA in the absence of chemical substance” value (yeast gene YPR023C)?
Its value is 1.4.

What about the “level of expressed mRNA in the presence of chemical substance / level in the absence of chemical substance” value (yeast gene YPR049C) of the same compound?
Its value is 2.5.

What about the “level of expressed mRNA in the presence of chemical substance / level in the absence of chemical substance” value (yeast gene YPR146C) of the same compound?
The value was 1.6.

And the “level of expressed mRNA in the presence of chemical substance / level in the absence of chemical substance” value (yeast gene YPR148C)?
The value was 1.2.

What about the “The level of expressed mRNA in the presence of chemical substance/The level of expressed mRNA in the absence of chemical substance” value (yeast gene YPR151C) of the same compound?
Its value is 2.0.

What about the “level of expressed mRNA in the presence of chemical substance / level in the absence of chemical substance” value (yeast gene YPR172W) of the same compound?
The value was 1.6.
